Among the data in patent US20230278958A1 (Merck Patent GmbH, priority 2020, published 2023) are IC50 and melting point values, retold here.

One data set relates to YAP-TEAD interaction. Description: SK-HEP-1 reporter assay (8x TEAD responsive elements driving NanoLuc luciferase). The following applies: Homo sapiens, SK-HEP1; SK-HEP-1 TEAD-NanoLuc reporter cells, 24 hour incubation, luciferase readout. Type of data set: cell-based. On the procedure:
To identify inhibitors of YAP-TEAD interaction, 8× TEAD responsive elements driving the NanoLuc® luciferase gene were stably integrated into SK-HEP-1 cells (ECACC #: 91091816).
For the assay, cells were treated in duplicates with the test compounds in a 10-point dose, with the top concentration starting at 30 μM (final concentration in assay). After a 24 hour incubation at 37° C., 95% rH, and 5% CO2, a luciferase substrate/lysis reagent mix (NanoGlo™, Promega) was added to the cells, allowing the quantification of cellular luciferase activity.
Cell Media: The cells were cultured in the following media: MEM, +10% FBS, +1× GlutaMAX, +1 mM Sodium-Pyruvate, +100 μM Non-essential amino acids, +0.1 mg/ml Hygromycin. The media used for the assay was: MEM (w/o Phenol Red), +10% FBS, +1× GlutaMAX, +1 mM Sodium-Pyruvate, +100 μM Non-essential amino acids, +0.5% Pen/Strep
(§1) Reagents: The reagents used are listed below:
Cell culture: The cells were examined using an inverted microscope to check for health and cell density. To dissociate adherent cells, the monolayer of cells was washed once with pre-warmed PBS. After removing the PBS, 3 ml pre-warmed Accutase® was added to a F75 flask, dispersed evenly and the flask was allowed to sit in incubator for ˜4-5 minutes.
(§2) When a single cell suspension was obtained, 7 ml of prewarmed growth media was added and resuspended with the cells. The cell suspension was transferred to a sterile 15 ml conical centrifuge tube, and spun for 5 min at 300×g, RT. The supernatant was discarded and the pellet was resuspended in 10 ml of pre-warmed growth media.
(§3) The total cell count was determined, and 20 μl of the desired cell number was added to each well of a 384 well plate using a Multidrop Combi. The plates were then incubated for 24 hours at 37° C., 95% rH, and 5% CO2.
(§4) Compound treatment: 24 hours after seeding, the cells were treated with compounds.
(§5) A 1:333 dilution of compounds, diluted in DMSO, was made to get a final concentration of 0.3% DMSO per well. To transfer the compounds to the assay plate, 120 nl was shot from Labcyte low dead volume plates to the cell plates containing 20 μl media/well with the ECHO 555 liquid handling system.
(§6) After treatment, the cells were fed with 20 μl fresh pre-warmed assay media using a Multidrop combi.
The assay plates were then incubated for another 24 h at 37° C., 95% rH, and 5% CO2.
Luciferase readout: 24 h after treatment, the plates were taken out of the incubator and were allowed to equilibrate to RT. 30 μl of NanoGlo® reagent was added to the plates in the dark. Plates were shaken for 20 min on a Teleshake (˜1500 rpm) in the dark. The luminescence was then measured using an EnVision microplate reader. The IC50 values were generated using Genedata Screener®.
Experimental data in SK-HEP-1 reporter assay of the compounds shown in Table 1 are shown in Table 2 below and classified in the following groups: […]
(In general: In a reporter assay the amount or activity of a reporter protein is the signal.)

The next data set deals with NCI-H226 cells. The experiment in a line: Viability assay in NCI-H226 (Yap-dependent) cells, CyQUANT. The conditions noted are these: Homo sapiens, 96 hour incubation. It is filed as cell-based. Here is the method: The ability of YAP-TEAD inhibitors to inhibit tumor cell growth was evaluated using two different cell lines: NCI-H226, which is a YAP dependent cell line, and SW620 cells, where YAP and TAZ were knocked out using CRISPR to generate a YAP independent cell line.
For the assay, cells were treated in duplicates with the test compounds in a 10-point dose, 1:3 dilution steps, with the top concentration starting at 30 μM (final concentration in assay). After a 96 hour incubation at 37° C., 95% rH, and 5% CO2, a cell-permeant DNA-binding dye that stains only healthy cells (CyQUANT®, Promega) was added to the cells, allowing the quantification of cell viability.
Cell Media: The NCI-H226 cells were cultured in the following media: RPMI 1640, +10% FBS, +1× GlutaMAX, +10 mM HEPES, +0.5% Pen/Strep. The SW620-KO cells were cultured in the following media: DMEM/F-12, +10% FBS, +1× GlutaMAX, +10 mM HEPES, +0.5% Pen/Strep.
as §1
Cell culture: The cells were examined using an inverted microscope to check for health, cell density, etc. To dissociate adherent cells, the monolayer of cells was washed once with pre-warmed PBS. After removing the PBS, 3 ml pre-warmed Accutase was added to a F75 flask, dispersed evenly and the flask was allowed to sit in incubator for ˜4-5 minutes.
as §2, §3, §4, §5, §6
The assay plates were then incubated for 96 h at 37° C., 95% rH, and 5% CO2.
96h after treatment 30 μl of CyQuant® reagent was added to the assay plates using a Multidrop combi in the dark. The plates were then incubated for 1 hour at 37° C., 95% rH and 5% CO2. Thereafter, the assay plates were removed from the incubator and allowed to equilibrate to RT for 30 min in the dark without lid. Finally, they were measured using an EnVision microplate reader with a FITC bottom read program.
Experimental data in the Viability assay of the compounds shown in Table 1 are shown in Table 3 below and classified in the following groups: […]

The compound `O=C(O)c1ccc2c(c1)c1cc(F)ccc1n2-c1ccc(C(F)(F)F)cc1` [Compound 11, 6-fluoro-9-[4-(trifluoromethyl)phenyl]-9H-carbazole-3-carboxylic acid] gave a melting point of 202 to 204 °C. The compound also gave an IC50 in the data set on YAP-TEAD interaction of 10 to 100 nM. The IC50 in the data set with NCI-H226 cells is 0.1 to 1 µM.
Consider `CC(C)c1ccc2c(c1)c1cc(C(=O)O)ccc1n2-c1ccc(C(F)(F)F)cc1` [Compound 13, 6-(propan-2-yl)-9-[4-(trifluoromethyl)phenyl]-9H-carbazole-3-carboxylic acid], for which the melting point lay in the range of 271 to 272 °C. This compound yielded an IC50 in the data set on YAP-TEAD interaction of 10 to 100 nM. Moreover, in the data set on NCI-H226 cells, the IC50 was 0.1 to 1 µM.
Compound `O=C(O)c1ccc2c(c1)c1cc(C(F)(F)F)ccc1n2-c1ccc(C(F)(F)F)cc1` [Compound 14, 6-(trifluoromethyl)-9-[4-(trifluoromethyl)phenyl]-9H-carbazole-3-carboxylic acid] registered a melting point of 292 to 294 °C. This compound came in with an IC50 in the data set on YAP-TEAD interaction of 1 to 10 nM. The IC50 with NCI-H226 cells fell in the range of 0.1 to 1 µM.
For `O=C(O)c1ccc2c(c1)c1nc(C(F)(F)F)ccc1n2-c1ccc(C(F)(F)F)cc1` [Compound 16, 2-(trifluoromethyl)-5-[4-(trifluoromethyl)phenyl]-5H-pyrido[3,2-b]indole-8-carboxylic acid], the melting point was 160 to 162 °C. For the same compound, the 50% inhibitory concentration (IC50) in the data set on YAP-TEAD interaction lay in the range of 10 to 100 nM. Also, the IC50 in the data set with NCI-H226 cells fell in the range of 0.001 to 0.1 µM.
The compound `Cc1ccc2c(n1)c1cc(C(=O)O)ccc1n2-c1ccc(C(F)(F)F)cc1` [Compound 17, 2-methyl-5-[4-(trifluoromethyl)phenyl]-5H-pyrido[3,2-b]indole-8-carboxylic acid] returned a melting point of 300 °C. In the data set with YAP-TEAD interaction, this compound came in with an IC50 of 1 to 10 nM. The same compound had an IC50 in the data set on NCI-H226 cells of 0.001 to 0.1 µM.
On the same counts, the results for `O=C(O)c1ccc2c(c1)c1nc(F)ccc1n2-c1ccc(C(F)(F)F)cc1` [Compound 18, 2-fluoro-5-[4-(trifluoromethyl)phenyl]-5H-pyrido[3,2-b]indole-8-carboxylic acid] are 300 °C, 10 to 100 nM and 0.1 to 1 µM.
Take `CNC(=O)c1ccc2c(c1)c1nc(F)ccc1n2-c1ccc(C(F)(F)F)cc1` [Compound 25, 2-fluoro-N-methyl-5-[4-(trifluoromethyl)phenyl]-5H-pyrido[3,2-b]indole-8-carboxamide]: the melting point lay in the range of 250 to 252 °C. Also, in the data set on YAP-TEAD interaction, the IC50 fell in the range of 100 to 1000 nM.
`O=C(O)c1cc2c3cccnc3n(Cc3ccc(C(F)(F)F)cc3)c2cn1` [Compound 34, 8-{[4-(trifluoromethyl)phenyl]methyl}-5,8,10-triazatricyclo[7.4.0.0^2,^7]trideca-1(9),2,4,6,10,12-hexaene-4-carboxylic acid] registered a melting point of 195 to 200 °C. The compound further returned an IC50 with YAP-TEAD interaction of 100 to 1000 nM.
For `Cc1ccc2c(c1)c1cc(C(=O)NCc3ccccn3)ccc1n2-c1ccc(C(F)(F)F)cc1` [Compound 51, 6-methyl-N-[(pyridin-2-yl)methyl]-9-[4-(trifluoromethyl)phenyl]-9H-carbazole-3-carboxamide], the concentration for half-maximal inhibition (IC50) was 100 to 1000 nM in the data set with YAP-TEAD interaction and 0.1 to 1 µM in the data set with NCI-H226 cells.
As for `Cc1ccc2c(c1)c1cc(C(=O)NCc3cccnc3)ccc1n2-c1ccc(C(F)(F)F)cc1` [Compound 52, 6-methyl-N-[(pyridin-3-yl)methyl]-9-[4-(trifluoromethyl)phenyl]-9H-carbazole-3-carboxamide], the IC50 is 100 to 1000 nM in the data set on YAP-TEAD interaction and 0.001 to 0.1 µM in the data set on NCI-H226 cells.
With `Cc1ccc2c(c1)c1cc(C(=O)NCc3ccncn3)ccc1n2-c1ccc(C(F)(F)F)cc1` [Compound 53, 6-methyl-N-[(pyrimidin-4-yl)methyl]-9-[4-(trifluoromethyl)phenyl]-9H-carbazole-3-carboxamide], the results for the IC50 in the data set with YAP-TEAD interaction and in the data set with NCI-H226 cells were 10 to 100 nM and 0.001 to 0.1 µM, respectively.
As for `Cc1ccc2c(c1)c1cc(C(=O)NC3(CO)CCC3)ccc1n2-c1ccc(C(F)(F)F)cc1` [Compound 54, N-[1-(hydroxymethyl)cyclobutyl]-6-methyl-9-[4-(trifluoromethyl)phenyl]-9H-carbazole-3-carboxamide], the IC50 in the data set on YAP-TEAD interaction was 100 to 1000 nM; with NCI-H226 cells, 0.1 to 1 µM.
In the case of `Cc1ccc2c(c1)c1cc(C(=O)NCC(O)CO)ccc1n2-c1ccc(C(F)(F)F)cc1` (stereo not shown) [Compound 55, N-(2,3-dihydroxypropyl)-6-methyl-9-[4-(trifluoromethyl)phenyl]-9H-carbazole-3-carboxamide], the IC50 in the data set with YAP-TEAD interaction was in the range of 10 to 100 nM; in the data set with NCI-H226 cells, 0.001 to 0.1 µM.
In the case of `Cc1ccc2c(c1)c1cc(C(=O)N[C@@H](CO)C3CCC3)ccc1n2-c1ccc(C(F)(F)F)cc1` [Compound 56, N-[(1R)-1-cyclobutyl-2-hydroxyethyl]-6-methyl-9-[4-(trifluoromethyl)phenyl]-9H-carbazole-3-carboxamide], the IC50 in the data set on YAP-TEAD interaction lay within 10 to 100 nM; with NCI-H226 cells, 0.001 to 0.1 µM.
As for `Cc1ccc2c(c1)c1cc(C(=O)N[C@H]3COC[C@@H]3O)ccc1n2-c1ccc(C(F)(F)F)cc1` [Compound 57, N-[(3S,4R)-4-hydroxyoxolan-3-yl]-6-methyl-9-[4-(trifluoromethyl)phenyl]-9H-carbazole-3-carboxamide], the IC50 in the data set with YAP-TEAD interaction is 100 to 1000 nM; in the data set on NCI-H226 cells, 0.1 to 1 µM.
Regarding `Cc1ccc2c(c1)c1cc(C(=O)N[C@H](c3ccccc3)[C@H](C)O)ccc1n2-c1ccc(C(F)(F)F)cc1` [Compound 58, N-[(1R,2S)-2-hydroxy-1-phenylpropyl]-6-methyl-9-[4-(trifluoromethyl)phenyl]-9H-carbazole-3-carboxamide], the IC50 lay within 100 to 1000 nM in the data set on YAP-TEAD interaction and 0.1 to 1 µM with NCI-H226 cells.
For the compound `Cc1ccc2c(c1)c1cc(C(=O)NCc3ccncc3)ccc1n2-c1ccc(C(F)(F)F)cc1` [Compound 59, 6-methyl-N-[(pyridin-4-yl)methyl]-9-[4-(trifluoromethyl)phenyl]-9H-carbazole-3-carboxamide], the IC50 in the data set on YAP-TEAD interaction lay within 10 to 100 nM; in the data set with NCI-H226 cells, 0.1 to 1 µM.
On the same counts, the results for `COCCC(CO)NC(=O)c1ccc2c(c1)c1cc(C)ccc1n2-c1ccc(C(F)(F)F)cc1` (stereo not shown) [Compound 61, N-(1-hydroxy-4-methoxybutan-2-yl)-6-methyl-9-[4-(trifluoromethyl)phenyl]-9H-carbazole-3-carboxamide] are 100 to 1000 nM and 0.1 to 1 µM.
Turning to `Cc1cc2c3cc(C(=O)O)ccc3n(-c3ccc(C(F)(F)F)cc3)c2cc1C` [Compound 62, 6,7-dimethyl-9-[4-(trifluoromethyl)phenyl]-9H-carbazole-3-carboxylic acid], the IC50 in the data set with YAP-TEAD interaction lay in the range of 1 to 10 nM; in the data set with NCI-H226 cells, 0.1 to 1 µM.
Regarding `Cc1ccc2c(c1)c1cc(C(=O)O)ccc1n2-c1ccc(OC(F)(F)F)cc1` [Compound 63, 6-methyl-9-[4-(trifluoromethoxy)phenyl]-9H-carbazole-3-carboxylic acid], the IC50 was 1 to 10 nM with YAP-TEAD interaction and 1 to 10 µM in the data set with NCI-H226 cells.

By IC50 is commonly meant the concentration that inhibits the measured activity by half. By melting point is commonly meant the temperature, or range, at which the solid turns liquid.
